Tests used:
hepatic lipase (HL) = hepatic lipase (HL) (Homo sapiens (Human), UniProt P11150); experiment: HL assay: hepatic lipase activity with fluorescent substrate A10070 in DMPG vesicles; type: biochemical
Protocol: (§1) Endothelial lipase (EL) and hepatic lipase (HL) activities were measured using a fluorescent substrate, A10070, (Invitrogen, CA) doped into an artificial vesicle containing DMPG (Avanti Polar Lipids) as the excipient. Vesicles were prepared by combining 571 μL of 29 mM DMPG in a 1:1 mixture of MeOH and CHCl3 with 2000 μL of 1 mM A10070 in a 1:1 mixture of MeOH and CHCl3. The mixture was dried under nitrogen in multiple vials then resuspended in 20 mL total volume of 50 mM HEPES pH 8.0 buffer containing 50 mM NaCl and 0.2 mM EDTA. The sample was allowed to sit at room temperature for 15 min and then was sonicated 3×4 mins on ice with a Branson Sonicator using duty cycle 1. This preparation provides vesicles with a mole fraction of 0.11 for the FRET substrate.
(§2) The enzymatic assay was measured using 384-well white Optiplates. Each well contained 20 μL of assay buffer (50 mM HEPES pH 8.0, 50 mM NaCl and 1 mM CaCl2) and 0.25 μL of a DMSO solution containing a compound of interest. EL or HL (10 μL) was added and allowed to incubate with the compound for 30 min at 37° C. The source of EL was conditioned media obtained from HT-1080 cells that were transformed using RAGE technology (Athersys) to overexpress endogenous EL, and HL was partially purified from conditioned media obtained from COS cells overexpressing HL. The reaction was started by the addition of 10 μL of a 1:10 dilution of vesicles. The final total reaction volume was […]. The reaction rates were measured on a Gemini plate reader with an excitation wavelength of 490 nm and an emission wavelength of 530 nm. Readings were taken over a period of 60 minutes, and the slope between 300 and 900 secs of the readout was used to calculate the rate of the reaction.

Endothelial lipase (EL) = Endothelial lipase (EL) (Homo sapiens (Human), UniProt Q9Y5X9); experiment: EL assay: endothelial lipase activity with fluorescent substrate A10070 in DMPG vesicles; type: biochemical
Endothelial lipase (EL), sequence (Q9Y5X9 21-500): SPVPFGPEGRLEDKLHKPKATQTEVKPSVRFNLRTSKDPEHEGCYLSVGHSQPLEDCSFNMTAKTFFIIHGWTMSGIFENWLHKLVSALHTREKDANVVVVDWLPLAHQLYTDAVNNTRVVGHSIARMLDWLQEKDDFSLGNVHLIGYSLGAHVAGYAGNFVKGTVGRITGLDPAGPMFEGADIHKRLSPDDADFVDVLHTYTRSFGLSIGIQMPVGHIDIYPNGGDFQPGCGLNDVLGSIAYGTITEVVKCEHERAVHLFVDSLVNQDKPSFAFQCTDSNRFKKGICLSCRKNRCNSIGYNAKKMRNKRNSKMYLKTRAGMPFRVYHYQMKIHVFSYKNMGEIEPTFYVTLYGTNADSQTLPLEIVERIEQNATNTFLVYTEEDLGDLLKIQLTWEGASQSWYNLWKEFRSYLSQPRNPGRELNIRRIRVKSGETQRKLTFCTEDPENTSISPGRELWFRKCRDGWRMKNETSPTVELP
Protocol: as §1, §2

hepatic lipase (HL), sequence (P11150 23-499, species assumed): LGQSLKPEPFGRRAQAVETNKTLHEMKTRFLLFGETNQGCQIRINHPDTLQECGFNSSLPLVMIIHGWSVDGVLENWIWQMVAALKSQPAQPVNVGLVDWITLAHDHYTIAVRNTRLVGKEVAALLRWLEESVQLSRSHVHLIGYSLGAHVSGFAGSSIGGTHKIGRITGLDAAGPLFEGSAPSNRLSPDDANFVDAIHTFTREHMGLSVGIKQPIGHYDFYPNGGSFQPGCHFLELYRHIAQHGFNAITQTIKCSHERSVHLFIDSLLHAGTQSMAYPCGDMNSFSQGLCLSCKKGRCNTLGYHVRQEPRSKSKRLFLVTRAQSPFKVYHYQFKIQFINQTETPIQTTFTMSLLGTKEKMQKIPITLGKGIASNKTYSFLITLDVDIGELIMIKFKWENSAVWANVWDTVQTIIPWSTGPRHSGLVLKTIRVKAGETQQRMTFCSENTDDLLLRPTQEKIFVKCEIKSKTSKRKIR

SMILES	IC50 (hepatic lipase (HL)) [nM]	IC50 (Endothelial lipase (EL)) [nM]
COCCOc1ccc(-c2ccc3nc(C(C(=O)NCCS(N)(=O)=O)S(C)(=O)=O)sc3c2)cc1 (centres unmarked) [Example B48, 2-(6-(4-(2-methoxyethoxy)phenyl)-1,3-benzothiazol-2-yl)-2-(methylsulfonyl)-N-(2-sulfamoylethyl)acetamide]	11	< 10
COCCNC(=O)c1cccc(-c2ccc3nc(C(C(=O)NCCS(N)(=O)=O)S(C)(=O)=O)sc3c2)c1 (centres unmarked) [Example B49, N-(2-methoxyethyl)-3-(2-(1-(methylsulfonyl)-2-oxo-2-((2-sulfamoylethyl)a-mino)ethyl)-1,3-benzothiazol-6-yl)ben-zamide]	152	< 10
CS(=O)(=O)C(C(=O)NCCS(N)(=O)=O)c1nc2ccc(-c3ccc(C#N)cc3)cc2s1 (centres unmarked) [Example B50, 2-(6-(4-cyanophenyl)-1,3-benzothiazol-2-yl)-2-(methylsulfonyl)-N-(2-Sulfamoylethyl)acetamide]	14	< 10
CS(=O)(=O)C(C(=O)NCCS(N)(=O)=O)c1nc2ccc(-c3cccc(C#N)c3)cc2s1 (centres unmarked) [Example B51, 2-(6-(3-cyanophenyl)-1,3-benzothiazol-2-yl)-2-(methylsulfonyl)-N-(2-sulfamoylethyl)acetamide]	< 10	< 10
CC(=O)Nc1cccc(-c2ccc3nc(C(C(=O)NCCS(N)(=O)=O)S(C)(=O)=O)sc3c2)c1 (centres unmarked) [Example B52, 2-(6-(3-acetamidophenyl)-1,3-benzothiazol-2-yl)-2-(methylsulfonyl)-N-(2-sulfamoylethyl)acetamide]	66	< 10
NS(=O)(=O)CCNC(=O)C(c1nc2ccc(-c3ccc(CCO)cc3)cc2s1)S(=O)(=O)CCC(F)(F)F (centres unmarked) [Example B53, 2-(6-(4-(2-hydroxyethyl)phen-yl)-1,3-benzothiazol-2-yl)-N-(2-sulfamoylethyl)-2-((3,3,3-trifluoropropyl)sul-fonyl)acetamide]	152	< 10
NS(=O)(=O)CCNC(=O)C(c1nc2ccc(-c3ccc(OCCN4CCCCC4)cc3)cc2s1)S(=O)(=O)CCC(F)(F)F (centres unmarked) [Example B54, 2-(6-(4-(2-(1-piperidinyl)ethoxy)phenyl)-1,3-benzothiazol-2-yl)-N-(2-sulfamoylethyl)-2-((3,3.3-trifluoropropyl)sul-fonyl)acetamide]	23	< 10
CC(=O)Nc1ccc(-c2ccc3nc(C(C(=O)NCCS(N)(=O)=O)S(=O)(=O)CCC(F)(F)F)sc3c2)cc1 (centres unmarked) [Example B55, 2-(6-(4-acetamidophenyl)-1,3-benzothiazol-2-yl)-N-(2-sulfamoylethyl)-2-((3,3,3-trifluoropropyl)sul-fonyl)acetamide]	55	< 10
CS(=O)(=O)C(C(=O)NCCS(N)(=O)=O)c1nc2ccc(-c3ccc(CO)cc3)cc2s1 (centres unmarked) [Example B56, 2-(6-(4-(hydroxymethyl)phen-yl)-1,3-benzothiazol-2-yl)-2-(methylsulfonyl)-N-(2-sulfamoylethyl)a-cetamide]	122	< 10
CS(=O)(=O)C(C(=O)NCCS(N)(=O)=O)c1nc2ccc(-c3ccc(S(=O)(=O)NCCO)cc3)cc2s1 (centres unmarked) [Example B57, 2-(6-(4-((2-hydroxyeth-yl)sulfamoyl)phenyl)-1,3-benzothiazol-2-yl)-2-(methylsulfonyl)-N-(2-sulfamoylethyl)acetamide]	144	< 10
CS(=O)(=O)C(C(=O)NCCS(N)(=O)=O)c1nc2ccc(-c3cccc(CCO)c3)cc2s1 (centres unmarked) [Example B58, 2-(6-(3-(2-hydroxyethyl)phenyl)-1,3-benzothiazol-2-yl)-2-(methylsulfonyl)-N-(2-sulfamoylethyl)acetamide]	36	< 10
NS(=O)(=O)CCNC(=O)C(c1nc2ccc(-c3ccc(C(=O)NCCO)cc3)cc2s1)S(=O)(=O)CC1CC1 (centres unmarked) [Example B59, 4-(2-(1-((cyclopropylmeth-yl)sulfonyl)-2-oxo-2-((2-sulfamoylethyl)amino)eth-yl)-1,3-benzothiazol-6-yl)-N-(2-hydroxyethyl)ben-zamide]	102	< 10
NS(=O)(=O)CCNC(=O)C(c1nc2ccc(-c3ccc(CCO)cc3)cc2s1)S(=O)(=O)CC1CC1 (centres unmarked) [Example B60, 2-((cyclopropylmethyl)sul-fonyl)-2-(6-(4-(2-hydroxyethyl)phenyl)-1,3-benzothiazol-2-yl)-N-(2-sulfamoylethyl)acetamide]	61	< 10
CN1CCOc2cc(-c3ccc4nc(C(C(=O)NCCS(N)(=O)=O)S(C)(=O)=O)sc4c3)ccc21 (centres unmarked) [Example B61, 2-(6-(4-methyl-3,4-dihydro-2H-1,4-benzoxazin-7-yl)-1,3-benzothiazol-2-yl)-2-(methylsulfonyl)-N-(2-sulfamoylethyl)acetamide]	50	< 10
CS(=O)(=O)C(C(=O)NCCS(N)(=O)=O)c1nc2ccc(-c3cccc(N4CCCC4)c3)cc2s1 (centres unmarked) [Example B62, 2-(methylsulfonyl)-2-(6-(3-(1-pyrrolidinyl)phenyl)-1,3-benzothiazol-2-yl)-N-(2-sulfamoylethyl)a-cetamide]	1	1.2
COCc1ccc(-c2ccc3nc(C(C(=O)NCCS(N)(=O)=O)S(C)(=O)=O)sc3c2)cc1 (centres unmarked) [Example B63, 2-(6-(4-(methoxymethyl)phen-yl)-1,3-benzothiazol-2-yl)-2-(methylsulfonyl)-N-(2-sulfamoylethyl)a-cetamide]	2.6	0.5
COCCOC(=O)Nc1ccc(-c2ccc3nc(C(C(=O)NCCS(N)(=O)=O)S(C)(=O)=O)sc3c2)cc1 (centres unmarked) [Example B64, 2-methoxyethyl(4-(2-(1-(methylsulfonyl)-2-oxo-2-((2-sulfamoylethyl)amino)eth-yl)-1,3-benzothiazol-6-yl)phenyl)carbamate]	1.9	0.5
NS(=O)(=O)CCNC(=O)C(c1nc2ccc(-c3ccc(C(=O)NCC(F)(F)F)cc3)cc2s1)S(=O)(=O)Cc1ccc(F)cc1 (centres unmarked) [Example B65, 4-(2-(1-((4-fluorobenzyl)sul-fonyl)-2-oxo-2-((2-sulfamoylethyl)amino)ethyl)-1,3-benzothiazol-6-yl)-N-(2,2,2-trifluoroethyl)ben-zamide]	61	< 10
CC(C)Cn1cc(-c2ccc3nc(C(C(=O)NCCS(N)(=O)=O)S(C)(=O)=O)sc3c2)cn1 (centres unmarked) [Example B67, 2-[6-(1-isobutyl-1H-pyrazol-4-yl)-1,3-benzothiazol-2-yl]-2-(methylsulfonyl)-N-(2-sulfamoylethyl)acetamide]	41	< 10
CS(=O)(=O)C(C(=O)NCCS(N)(=O)=O)c1nc2ccc(-c3cnn(Cc4ccccc4)c3)cc2s1 (centres unmarked) [Example B68, 2-[6-(1-benzyl-1H-pyrazol-4-yl)-1,3-benzothiazol-2-yl]-2-(methylsulfonyl)-N-(2-sulfamoylethyl)a-cetamide]	< 10	< 10
NS(=O)(=O)CCNC(=O)C(c1nc2ccc(-c3cnn(CCN4CCOCC4)c3)cc2s1)S(=O)(=O)CCC(F)(F)F (centres unmarked) [Example B69, 2-(6-(1-(2-(4-morpholinyl)eth-yl)-1H-pyrazol-4-yl)-1,3-benzothiazol-2-yl)-N-(2-sulfamoylethyl)-2-((3,3,3-trifluoropropyl)sul-fonyl)acetamide]	612	< 10
COCCS(=O)(=O)C(C(=O)NCCS(N)(=O)=O)c1nc2ccc(-c3ccc(NC(=O)OC(C)(C)C)cc3)cc2s1 (centres unmarked) [Example B70, tert-butyl (4-(2-(1-((2-methoxyethyl)sulfonyl)-2-oxo-2-((2-sulfamoylethyl)a-mino)ethyl)-1,3-benzothiazol-6-yl)phenyl)car-bamate]	< 10	< 10
COCCS(=O)(=O)C(C(=O)NCCS(N)(=O)=O)c1nc2ccc(-c3ccc(NC(=O)OC)cc3)cc2s1 (centres unmarked) [Example B71, methyl (4-(2-(1-((2-methoxyethyl)sulfonyl)-2-oxo-2-((2-sulfamoylethyl)a-mino)ethyl)-1,3-benzothiazol-6-yl)phenyl)car-bamate]	< 10	< 10
NS(=O)(=O)CCNC(=O)C(c1nc2ccc(-c3ccnc(F)c3)cc2s1)S(=O)(=O)CCC(F)(F)F (centres unmarked) [Example B72, 2-(6-(2-fluoro-4-pyridinyl)-1,3-benzothiazol-2-yl)-N-(2-sulfamoylethyl)-2-((3,3,3-trifluoropropyl)sulfonyl)a-cetamide]	68	< 10
NS(=O)(=O)CCNC(=O)C(c1nc2ccc(-c3cnn(CCN4CCOCC4)c3)cc2s1)S(=O)(=O)Cc1ccc(C(F)(F)F)cc1 (centres unmarked) [Example B73, 2-(6-(1-(2-(4-morpholinyl)ethyl)-1H-pyrazol-4-yl)-1,3-benzothiazol-2-yl)-N-(2-sulfamoylethyl)-2-((4-(trifluoromethyl)benzyl)sul-fonyl)acetamide]	15900	< 10
